Experimental data from patent US4937232A, “Inhibition of protein kinase C by long-chain bases” (priority 1988, dated 1990).
Where two headings read alike, the source gives them in different places.

Tests used:
neutrophils = assay: Cell association of radiolabeled sphinganine with neutrophils; format: in vitro ADME, human; details: 3, 10, 30 μM plus albumin carrier, 2.5×10^6 cells, 5 min
Description: To determine how much inhibitor was actually becoming associated with the cells, radiolabeled sphinganine (3, 10, 30 μM) plus albumin carrier was incubated with neutrophils (2.5×10^6 cells) for 5 min (i.e. a time longer than that needed to achieve inhibition). After washing by centrifugation, the cell-associated radioactivity was measured. Approximately 20% of the added sphinganine became cell-associated. Therefore, because of partitioning between the albumin and the cells, the cellular concentration of sphinganine was considerably less than the total.

protein kinase C [1] = assay: Triton X-100 mixed micellar assay for protein kinase C activity; format: biochemical, rat; details: for inhibition of protein kinase C (specificity): mixed micellar assay
Description: Protein kinase C was partially purified from rat brain as described by Hanrun et al (J. Biol. Chem., 260, 10043, 1985), which is hereby incorporated by reference.
Protein kinase C was assayed with Triton X-100 mixed micelles as described by Hanrun et al, (ibid.), Sphingosine was dried down with the lipid cofactors.

HL-60 cells = assay: PMA-induced adherence (attachment) of HL-60 cells; format: cell-based, human; details: for Adherent cells (%): 72 h; for IC50: Homo sapiens
Description: Cells were centrifuged at 600 g for 3 min, and added at 1×10^5 cells per well in 12-well culture dishes. Medium, PMA, and long-chain bases (prepared as the 1:1 molar complex with fatty acid-free bovine serum albumin) at the indicated concentrations were added for a total volume of 2.0 ml. After the desired times, the cells in suspension were counted and checked for viability (trypan blue exclusion) with a hemacytometer. The attached cells were quantitated by measuring DNA content according to the method of West et al (Anal. Biochem., 147, 289-295, 1985) and by assaying for acid phosphatase according to the method of Schnyder (J. Exp. Med., 148, 434-445, 1978).

[2] = Neutrophil viability (Trypan Blue exclusion, LDH release); format: cell-based; details: human, neutrophils, 50 μM sphinganine, 1.2×10^7 cells/ml
Description: Cell viability was assessed by two criteria: Trypan Blue exclusion and release of the cytosolic enzyme, lactate dehydrogenase (LDH). LDH activity was monitored by following the oxidation of NADH at 340 nm. […] Trypan Blue exclusion was determined microscopically.

human neutrophils = assay: Oxygen consumption (oxidative burst) of human neutrophils; format: cell-based; details: for IC50: Homo sapiens, Neutrophil
Source text: Human neutrophils were obtained by continuous flow leukapheresis from normal adults. Residual erythrocytes were removed by hypotonic lysis with a resulting purity of >95% neutrophils. Alternatively peripheral blood was obtained by phlebotomy and neutrophils were isolated by HESPAN (6% Hetastarch, 0.9% NaCl) sedimentaion of erythrocytes, centrifugation through lymphocyte separation medium (9.4% sodium diatrizoate, 6.2% Ficoll), and hypotonic lysis of residual erythrocytes. Isolated cells were resuspended in phosphate buffered saline (PBS)-glucose, containing 0.6 mM CaCl2, 2.6 mM KCl, 1.5 mM KH2 PO4, 0.5 mM MgCl2, 136 mM NaCl, 8 mM Na2 HPO4, 5.5 mM glucose.
Oxygen consumption was measured using a Clark-type electrode with YSI model 53 oxygen monitor. Assays were conducted at 37° C. with 6.5×10^6 cells per ml with a total volume of either 2.5 ml or 4 ml. Effectors were injected into the electrode chamber using a Hamilton syringe. Initial slopes after the addition of the stimuli were used for rate calculations. For activators with a lag prior to the onset of the oxidative burst, maximal rates following the lag were used.

protein kinase C [3] = assay: Mixed micellar protein kinase C activity assay for lysosphingolipids (Table VI); format: biochemical
Description: TABLE VI: Inhibition of protein kinase C activity and phorbol-dibutyrate binding by lysosphingolipids. […] The remaining two columns show the observed effects of the lysosphingolipids of protein kinase C activity and phorbol diester binding in vitro and in human platelets. Lysogangliosides were prepared from their parental gangliosides by hydrolysis in methanolic KOH esentially as described by Neuenhofer et al. in Bioch. 24, 525, 1985. During this preparation, with approximately 90-95% conversion, the N-acetate of N-acetylneuraminic acid is partially hydrolyzed. Fatty acids were partitioned into heptane after acidification of the methanolic reaction mixture. Galactosylsphingosine, glucosylsphingosine, and lactosylsphingosine were prepared as previously described for galactosylsphingosine (Radin, Lipids 9, 358, 1974) Sphingosylphosphorylcholine was prepared by hydrolysis in HCl-butanol (Kaller, Biochemische Zeitschrift 334, 451, 1961). The purity of the lyso derivatives (greater than 90%) was checked by thin layer chromatography (TLC) on silica gel H plates developed in chloroform/methanol/2N NH4 OH (65/35/9) and visualized by ninhydrin reaction for N-lyso compounds, by α-naphthol/sulfuric acid for both gangliosides and lysogangliosides,and by a phospholipid spray for sphingosylphosphorylcholine. Lysosphingolipids were quantitated by reaction of the amine group with trinitrobenzenesulfonate. Gangliosides and lysosphingolipids were also quantitated by reaction with anthrone. The lysosphingolipids were then studied for their effect on protein kinase C activity. Protein kinase C was purified to near homogeneity by the method of Wolf et al. (J. Biol. Chem. 260, 15718, 1985), and activity was measured using a mixed micellar assay (described herein). Lysosphingolipids were added directly in aqueous solution, and allowed to equilibrate with the Triton X-100 (0.3% w/v) mixed micelles containing 6 mol % phosphatidylserine and 2 mol % dioleoylglycerol. […] Phorbol-dibutyrate binding was measured in a mixed micellar assay. Lysosphingolipids inhibited phorbol-dibutyrate binding to protein kinase C in the presence of Triton X-100 mixed micelles containing 20 mol % phosphatidylserine. […] The difference is related to the higher concentration of phosphatidylserine used in the binding assay, as both activity and binding show a high cooperative dependence on phosphatidylserine, which modulates the inhibition by lysosphingolipids. Phorbol-dibutyrate binding to human platelets and 40 kDa phosphorylation in platelets were carried out as described above. Lysosphingolipids inhibited phorbol dibutyrate binding to human platelets at concentrations in the 10-50 μM range. Inhibition of 40 kDa phosphorylation occurred over the same concentration range.

[4] = oxidative burst, PMA activation, read-out: Concentration required for 50% inhibition

## CCCCCCCCCCCCCCC[C@@H](O)[C@@H](N)CO (relative stereo) [Sphinganine, erythro-dihydrosphingosine]
neutrophils
  added sphinganine that became cell-associated: Approximately 20%
Protein kinase C [1]
  inhibition of protein kinase C (specificity): inhibitors
HL-60 cells; 8 nM PMA + 1 μM sphinganine, 24 h
  % Adherence: 26%
HL-60 cells; 8 nM PMA + 1 μM sphinganine, 24 h, listed as Sa
  % Adherence: 25.5 ± 7.7%
HL-60 cells; 8 nM PMA + 2.5 μM sphinganine
  Adherence: 17.6±6.4%
HL-60 cells; 8 nM PMA + 5 μM sphinganine
  Adherence: 15.0±2.1%
HL-60 cells; 8 nM PMA plus 1 μM sphinganine, 24 h
  number of adherent cells: 0.51 ×10^5
HL-60 cells; 8 nM PMA, 1 μM sphinganine
  Adherent cells (%): 85%
HL-60 cells; 8 nM PMA, 2.5 μM sphinganine
  Adherent cells (%): 74%
HL-60 cells; 8 nM PMA, 5 μM sphinganine
  Adherent cells (%): 70%
HL-60 cells; 1 μM sphinganine, no PMA, 24 h
  % Adherence: 3.7 ± 0.7%
HL-60 cells; HL-60, 8 nM PMA, read-out: 50% inhibition of PMA-induced attachment
  IC50: 3 µM
HL-60 cells; No PMA, 1 μM sphinganine
  Adherent cells (%): 9%
HL-60 cells; No PMA, 2.5 μM sphinganine
  Adherent cells (%): 11%
HL-60 cells; No PMA, 5 μM sphinganine
  Adherent cells (%): 6%
[2]; read-out: cellular LDH retained
  viability at 50 µM: > 96%
[2]; read-out: viability by Trypan Blue exclusion
  viability at 50 µM: > 95%
Human neutrophils; 40 μM sphinganine 5-10 min, then washed twice with 50 μM fatty acid-free BSA
  PMA-induced oxygen consumption after washing out sphinganine: 3.7 nmols/min/10^6 cells
Human neutrophils; 50 μM sphinganine 3 min before Arachidonate (83 μM)
  RATE of oxygen consumption, SPHINGANINE: 0.2 nmols O2 consumed/min/10^6 cells
Human neutrophils; 50 μM sphinganine 3 min before Dioctanoyl Glycerol (100 μM)
  RATE of oxygen consumption, SPHINGANINE: 0.3 nmols O2 consumed/min/10^6 cells
Human neutrophils; 50 μM sphinganine 3 min before FMLP (0.5 μM) + Cytochalasin B (5 μg/ml)
  RATE of oxygen consumption, SPHINGANINE: 0.3 nmols O2 consumed/min/10^6 cells
Human neutrophils; 50 μM sphinganine 3 min before Opsonized zymosan (30 μg/ml)
  RATE of oxygen consumption, SPHINGANINE: 0.3 nmols O2 consumed/min/10^6 cells
Human neutrophils; 50 μM sphinganine 3 min before Phorbol Myristate Acetate (1 μM)
  RATE of oxygen consumption, SPHINGANINE: 0.2 nmols O2 consumed/min/10^6 cells
Human neutrophils; activator PMA, read-out: half maximal inhibition of oxygen consumption
  IC50: 6.7 µM
Human neutrophils; activator dioctanoylglycerol, read-out: half maximal inhibition of oxygen consumption
  IC50: 7.4 µM
Human neutrophils; activator opsonized zymosan, read-out: half maximal inhibition of oxygen consumption
  IC50: 5.6 µM
Human neutrophils; approximately 7.5×10^6 cells/ml, read-out: concentration for 50% inhibition, oxygen consumption assay
  IC50: 6 to 8 µM
Human neutrophils; [4]
  IC50: 7 µM
Human neutrophils; preliminary studies
  activation of the oxidative burst by A23187: blocked

## CCCCCCCCCCCCC/C=C/[C@@H](O)[C@@H](N)CO [sphingosine]
Protein kinase C [3]; 0.3% Triton X-100, 1 mol % = 43 μM
  Inhibition of Protein Kinase C, concentration giving 50% inhibition, (mol %): 1.9 mol %
Protein kinase C [3]; 0.3% Triton X-100 mixed micelles, 6 mol % phosphatidylserine, 2 mol % dioleoylglycerol, read-out: Inhibition of Protein Kinase C, concentration giving 50% inhibition
  IC50: 80 µM
Protein kinase C [1]; 2 mol % sphingosine
  Hill number of the PS dependence of protein kinase C activation: 6.9
Protein kinase C [1]; 4 mol % sphingosine
  Hill number of the PS dependence of protein kinase C activation: 8.8
Protein kinase C [1]; 6 mol % PS, 50 μM Ca2+, double reciprocal plots
  type of inhibition with respect to diC18:1: competitive
Protein kinase C [1]; Triton X-100 mixed micelles, 6 mol % PS, 2 mol % diC18:1, read-out: 50% inhibition of protein kinase C activity
  IC50: 100 µM
Protein kinase C [1]; double reciprocal plots
  type of inhibition with respect to phorbol dibutyrate: competitive inhibition
Protein kinase C [1]; fixed PS and diC18:1, 3 and 4 mol % sphingosine
  type of inhibition with respect to Ca2+: appeared competitive
Protein kinase C [1]
  inhibition of protein kinase C (specificity): potent and reversible inhibitor
HL-60 cells; HL-60, read-out: 50% inhibition of PMA-induced attachment
  IC50: 1 µM
Human neutrophils; [4]
  IC50: 9 µM
